Active and inactive are the calls of the source. How the calls were made is not given here.
Molecular target: T-cell receptor (TCR)-CD3 interaction, human (TCR alpha chain TRAV4)
Test: potency of TCR-CD3 interaction inhibitors, dose response, biochemical, fluorescence, TAMRA-labeled TCR probe (AID 686957)
Details: TCR-CD3 binding

In the case of `O=C(NNC(=S)NC(=O)c1cccc([N+](=O)[O-])c1)c1ccc(O)cc1`, the IC50 is reported as > 94 µM (inactive).

In the case of `O=C(CSc1nc2ccccc2s1)N/N=C/c1cc([N+](=O)[O-])ccc1O`, the IC50 is reported as > 94.1 µM (inactive).

With `CCC1=NN(C(=O)c2cccc([N+](=O)[O-])c2)C(O)(c2ccc(C)cc2)C1` (stereo not drawn) the IC50 was > 94.1 µM (inactive).

For `O=C(CSc1nnc(-c2ccccc2)n1Cc1ccccc1)NNC(=O)c1ccccc1O`, the IC50 was > 94.1 µM (inactive).

For `O=C1C=C(O)c2c(O)cc(O)c(O)c2C1=O`, the IC50 was > 94.1 µM (inactive).

`COC(=O)Cn1c(=NC(=O)c2cc(-c3cccs3)nc3ccccc23)sc2cc(S(N)(=O)=O)ccc21` was tested, and the IC50 was > 10.5 µM (inactive).

In the case of `C/C(=N\NC(=O)c1ccc(-c2ccccc2)cc1)C1C(=O)c2ccccc2C1=O`, the IC50 is reported as > 94.1 µM (inactive).

`O=C(N/N=C/c1ccoc1)c1cc(O)cc(O)c1` was tested, and the IC50 was > 94 µM (inactive).

For `CNC(=S)NNC(=O)c1cccn(Cc2ccc(Cl)c(Cl)c2)c1=O`, the IC50 was > 94 µM (inactive).

`CNC(=S)N/N=C/c1cc(Br)cc(Br)c1O` was tested, and the IC50 was > 94.1 µM (inactive).

In the case of `O=C(NNC(=S)NC1CCCCC1)c1ccccc1O`, the IC50 is reported as > 94.1 µM (inactive).

In the case of `CCn1c(C)nc2cc(C(=O)NNC(=S)NC(=O)c3ccccc3)ccc21`, the IC50 is reported as > 94.1 µM (inactive).

For `COc1ccc(NC(=O)NNC(=O)c2ccc3ccccc3c2O)cc1OC`, the IC50 was > 94.1 µM (inactive).

`CC1CCCC(C)N1/N=C/c1ccc(O)c(O)c1` (stereo not drawn) was tested, and the IC50 was > 94.1 µM (inactive).

`Nc1ncnc2oc(-c3ccco3)c(-c3ccco3)c12` was tested, and the IC50 was “inactive”.

For `O=C(CN1C(=O)S/C(=C\c2ccccc2)C1=O)NNC(=O)c1ccccc1O`, the IC50 was > 94.1 µM (inactive).

With `O=C(N/N=C/c1cc([N+](=O)[O-])ccc1O)c1cccc(N2CCCC2=O)c1` the IC50 was > 94.1 µM (inactive).

`CNC(=S)NNC(=O)c1cccn(Cc2ccccc2)c1=O` was tested, and the IC50 was > 94.2 µM (inactive).

In the case of `CCC(=O)Nc1ccc2nc3c(=O)[nH]c(=S)[nH]c3nc2c1`, the IC50 is reported as > 94.1 µM (inactive).

`Cc1cc(C)c(-c2cc(NC(=O)COC(=O)c3ccc(NC(=O)CC#N)cc3)n(-c3ccccc3)n2)cc1C` was tested, and the IC50 was > 94.1 µM (inactive).

For `CC(=O)NC(CC(=O)NNC(=O)c1cc2ccccc2cc1O)c1ccccc1` (stereo not drawn), the IC50 was > 94.1 µM (inactive).

In the case of `COc1ccc2nc(C)cc(SCC(=O)N/N=C/c3ccc(O)c(O)c3)c2c1`, the IC50 is reported as > 94.1 µM (inactive).

`O=C(NNC(=O)c1cc(Cl)ccc1O)c1cccc(S(=O)(=O)N2CCOCC2)c1` was tested, and the IC50 was > 94.1 µM (inactive).

With `Cc1ccc(O)c(/C=N/NC(=O)COc2ccc3c(C)cc(=O)oc3c2)c1` the IC50 was > 94.1 µM (inactive).

For `NS(=O)(=O)c1ccc(NC(=O)c2cccc(N3C(=O)c4ccccc4C3=O)c2)cc1`, the IC50 was > 94.1 µM (inactive).

In the case of `O=C(N/N=C/c1c(O)n(Cc2ccco2)c(=O)[nH]c1=O)c1ccccc1O`, the IC50 is reported as > 94 µM (inactive).

`Cc1cc(C)c2c(N)c(C(=O)NN)sc2n1` was tested, and the IC50 was > 94.1 µM (inactive).

In the case of `CC(C)C(=O)Nc1ccc(C(=O)NNC(=S)NC(=O)c2ccccc2[N+](=O)[O-])cc1`, the IC50 is reported as > 94.1 µM (inactive).

`COc1ccc(C(=O)NC(=S)NNC(=O)c2ccc(O)cc2)cc1[N+](=O)[O-]` was tested, and the IC50 was > 94.1 µM (inactive).

`O=c1cc(-c2ccc(O)cc2)oc2c(O)c(O)c(O)c(O)c12` was tested, and the IC50 was > 94.2 µM (inactive).

In the case of `COc1cc(OC)cc(C(=O)N/N=C/c2ccc(OC)c(COc3ccc4ccccc4c3)c2)c1`, the IC50 is reported as > 94.1 µM (inactive).

For `CC/C(=N\NC(=O)c1ccccc1O)c1c(O)n(Cc2ccccc2)c(=O)[nH]c1=O`, the IC50 was > 94.1 µM (inactive).

With `CCOC(=O)c1c(C)[nH]c(C(=O)N/N=C/c2cc([N+](=O)[O-])ccc2O)c1C` the IC50 was > 94.1 µM (inactive).

`Cc1cc(/C=N/n2c(COc3ccccc3C)nc3ccccc3c2=O)c(O)c([N+](=O)[O-])c1` was tested, and the IC50 was > 94.1 µM (inactive).

With `Nc1c(C(=O)NCC2CCCO2)sc2nc3c(c(-c4ccco4)c12)CC/C3=C\c1ccco1` (stereo not drawn) the IC50 was “inactive”.

`O=C(O)CC(CCc1ccccc1)OC1OC(CO)C(O)C(O)C1O` (stereo not drawn) was tested, and the IC50 was > 94.1 µM (inactive).

With `O=C(CSc1nc2ccccc2c(=O)n1-c1ccc(F)c(Cl)c1)Nc1cccc(S(=O)(=O)N2CCOCC2)c1` the IC50 was > 10.5 µM (inactive).

With `COc1ccc(C(=O)Nc2nnc(CC(=O)N/N=C/c3ccc(O)cc3O)s2)cc1` the IC50 was > 94.1 µM (inactive).

`COc1cccc(/C=C2/SC(=S)N(CC(=O)NNC(=O)c3ccccc3O)C2=O)c1` was tested, and the IC50 was > 94.1 µM (inactive).

In the case of `O=C(NNC(=O)c1ccc2ccccc2c1O)c1ccccc1Cl`, the IC50 is reported as > 94.1 µM (inactive).

`CC(C)C(=O)Nc1ccc(C(=O)NNC(=S)NC(=O)c2ccco2)cc1` was tested, and the IC50 was > 94.1 µM (inactive).

With `O=C(Nc1cccc(S(=O)(=O)NC2=NCCC2)c1)c1cc(-c2ccco2)nc2ccccc12` the IC50 was > 94.1 µM (inactive).

With `O=C(O)c1c[nH]c2c([N+](=O)[O-])cccc2c1=O` the IC50 was > 31.3 µM (inactive).

From PubChem BioAssay AID686957 (The Scripps Research Institute Molecular Screening Center, 2013)
